Laboratory results: US20250206708A1, “AN OXAZIRIDINE PLATFORM FOR TARGETING FUNCTIONAL ALLOSTERIC METHIONINE SITES” (Novartis AG, priority 2022, published 2025)

Legend:
[1] = biological target: CDK4 (Homo sapiens, UniProt P11802); experiment: Gel-based ABPP competition with Compound 303 probe on isolated CDK4; format: binding; conditions: Cy3 fluorescence readout
Description: Activity-based protein profiling (ABPP) was performed as follows. CDK4 was diluted in PBS to 50 nM, then 50 μL was added to each well of a 96-well PCR plate. Ligands were dissolved fresh in DMSO to 5 μM, and 1 μL was added so each well contained a unique ligand at the indicated concentration. Wells were mixed and allowed to incubate 1 h at 23° C. […] Excess oxaziridine was quenched with N-acetyl methionine via addition of 1 μL of 10 mM DMSO stock (200 μM final), wells mixed and allowed to incubate 1 h at 23° C. A stock was prepared 1:5 of 12.5 μM DBCO-Cy3 in DMSO: 1.2% SDS/PBS. To each well was added 6 μL of this stock, the wells mixed and allowed to incubate overnight protected from light at 23° C. […] Samples were loaded and separated on precast 4-20% TGX gels and scanned by ChemiDoc MP for measuring in-gel fluorescence. […]
The oxaziridine fragment library from Example 8 was screened for methionine-directed modifiers of CDK4 via a gel-based ABPP platform as described in Example 3, seen in FIG. 7B. […] DBCO-Cy3 was then introduced by strain-promoted click chemistry to provide a fluorescence readout. The samples were subsequently separated via SDS-PAGE and fluorescence signals were normalized via silver stain to triage any covalent ligands that induced general protein aggregation, which would generate a false positive Cy3 signal, as shown in FIG. 5B. […]

[2] = biological target: T1, CDK1 (Homo sapiens, UniProt P06493); experiment: Gel-based ABPP, isoform specificity on CDK1; format: binding; conditions: dose-dependent treatment
Description: Activity-based protein profiling (ABPP) was performed as follows. CDK4 was diluted in PBS to 50 nM, then 50 μL was added to each well of a 96-well PCR plate. Ligands were dissolved fresh in DMSO to 5 μM, and 1 μL was added so each well contained a unique ligand at the indicated concentration. Wells were mixed and allowed to incubate 1 h at 23° C. Ligands were then chased with fresh Compound 301 with 1 μL of 5 μM added to each well (100 nM final), wells mixed and allowed to incubate 1 h at 23° C. Excess oxaziridine was quenched with N-acetyl methionine via addition of 1 μL of 10 mM DMSO stock (200 μM final), wells mixed and allowed to incubate 1 h at 23° C. A stock was prepared 1:5 of 12.5 μM DBCO-Cy3 in DMSO: 1.2% SDS/PBS. To each well was added 6 μL of this stock, the wells mixed and allowed to incubate overnight protected from light at 23° C. The next morning 30 μL of 4×Laemmli's buffer containing 10% BME was added to each well. The plate was sealed and brought to 95° C. for 6 min. Samples were loaded and separated on precast 4-20% TGX gels and scanned by ChemiDoc MP for measuring in-gel fluorescence. After that, the total protein level on the gel was assayed by silver staining according to the manufacturer's protocol and scanned by ChemiDoc MP.
The isoform specificity was tested with two closely-related congeners, CDK1 and CDK6.

[3] = biological target: T1, CDK1; experiment: Shotgun proteomics (MS/MS) modification of purified CDK1; format: binding; conditions: shotgun proteomics on purified protein
[4] = biological target: CDK6 (Homo sapiens, UniProt Q00534); experiment: Shotgun proteomics (MS/MS) modification of purified CDK6; format: binding; conditions: shotgun proteomics on purified protein
[5] = system: MCF-7 cells; experiment: Cell Counting Kit-8 cell viability assay in MCF-7; format: cell-based; conditions: Homo sapiens, MCF7; 24 h, CCK-8; read-out: EC50, decrease in cell viability of MCF-7 cells
Description: All cells were maintained as a monolayer in exponential growth at 37° C. in a 5% CO2 atmosphere. MCF-7 and HepG2 were maintained in Dulbecco's Modified Eagle Medium (DMEM, Gibco) supplemented with 10% (v/v) fetal bovine serum (FBS, Seradigm). HT-29 and SW-48 were maintained in RPMI 1640 Medium (Gibco) supplemented with 10% FBS.
All cells dosed with oxaziridine were treated using a 2% DMSO/media solution. Oxaziridines were dissolved in DMSO and used the same day as treatment. Media was removed from cells and replaced with fresh media containing oxaziridine in DMSO for a final concentration of 2% DMSO. Control wells were treated with 2% DMSO/media. Cells were incubated at 37° C. in a 5% CO2 atmosphere.
Commercially available Cell Counting Kit-8 Assay (Dojindo) was used to investigate cell viability after treatment with oxaziridines. Cells were plated in 96-well plates (black/clear bottom; Thermo Fisher) and grown to 75% confluency. Media was removed and replaced with media containing 2% DMSO and indicated compound concentration. Cells were allowed to incubate 24 h. To assess viability, media was removed and replaced with 100 μL media containing 10% CCK-8 assay solution. Plates were incubated at 37° C. in a 5% CO2 atmosphere for 1-4 h until an orange color was visible. Viability was quantified via plate reader (monofilter) with absorption at 450 nm.

T1 sequence (P06493 whole entry, canonical isoform): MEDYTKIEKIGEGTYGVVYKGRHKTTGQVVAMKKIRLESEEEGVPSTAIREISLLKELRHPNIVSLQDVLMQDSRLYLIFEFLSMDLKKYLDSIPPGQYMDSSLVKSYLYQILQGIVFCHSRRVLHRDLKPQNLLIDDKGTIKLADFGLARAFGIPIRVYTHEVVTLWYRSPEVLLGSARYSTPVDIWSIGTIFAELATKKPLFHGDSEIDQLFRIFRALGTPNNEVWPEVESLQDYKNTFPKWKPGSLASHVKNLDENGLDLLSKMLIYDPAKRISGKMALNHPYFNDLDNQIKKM
CDK6, sequence (Q00534 whole entry): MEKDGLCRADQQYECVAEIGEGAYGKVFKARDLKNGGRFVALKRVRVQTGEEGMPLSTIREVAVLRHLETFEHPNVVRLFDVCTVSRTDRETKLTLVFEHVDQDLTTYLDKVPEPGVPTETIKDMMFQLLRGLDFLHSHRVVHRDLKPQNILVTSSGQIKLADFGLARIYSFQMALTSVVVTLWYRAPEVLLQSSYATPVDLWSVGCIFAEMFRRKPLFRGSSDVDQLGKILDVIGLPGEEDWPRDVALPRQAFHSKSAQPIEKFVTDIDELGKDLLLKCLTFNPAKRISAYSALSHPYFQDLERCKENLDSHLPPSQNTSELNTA
CDK4, sequence (P11802 whole entry): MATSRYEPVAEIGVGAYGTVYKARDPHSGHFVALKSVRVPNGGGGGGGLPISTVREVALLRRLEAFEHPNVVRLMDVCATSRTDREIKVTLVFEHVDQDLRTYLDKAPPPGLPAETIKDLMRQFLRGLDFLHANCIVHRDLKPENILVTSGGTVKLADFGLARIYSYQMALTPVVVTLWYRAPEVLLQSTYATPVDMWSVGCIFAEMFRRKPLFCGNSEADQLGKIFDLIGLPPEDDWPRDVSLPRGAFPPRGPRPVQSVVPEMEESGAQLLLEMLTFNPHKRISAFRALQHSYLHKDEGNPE
CDK4, sequence (P24385 whole entry partner): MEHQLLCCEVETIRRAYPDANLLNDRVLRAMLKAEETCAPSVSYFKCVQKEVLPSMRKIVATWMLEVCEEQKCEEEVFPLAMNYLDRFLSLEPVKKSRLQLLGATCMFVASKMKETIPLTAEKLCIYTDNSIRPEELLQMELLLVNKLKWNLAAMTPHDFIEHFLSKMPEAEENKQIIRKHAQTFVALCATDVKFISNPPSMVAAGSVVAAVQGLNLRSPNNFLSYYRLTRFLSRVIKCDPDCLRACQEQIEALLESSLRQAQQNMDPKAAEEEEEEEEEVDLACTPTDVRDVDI

SMILES: O=C(N1CC2COCC2C1)N1OC1c1ccccc1 (centres unmarked) [Compound 148]
- competition with Compound 303 probe for CDK4 binding [1]: competition with the Compound 303 probe for CDK4 binding in a dose-dependent manner
- labeling against CDK1 by gel analysis [2]: no dose-dependent labeling
- modifications on CDK1 [3]: No modifications
- modifications on CDK6 [4]: No modifications
- EC50 [5]: 330 µM
